Test results: patent US11779560B2 (priority 2020, dated 2023)

Tests used:
Conditions in all cases: 10-100 μM concentrations
[1] = test system: HMEC-1 human dermal endothelial cells; assay: Cell TiterGlo ATP Luminescent Cell Viability assay (total cellular ATP); assay type: cell-based
Procedure: The Cell TiterGlo ATP Luminescent Cell Viability assay (Promega Cat. #G7571) was run to measure total cellular ATP in response to compound treatment. Assays were performed using HMEC-1 human dermal endothelial cells. Compounds were screened using 8-point ½ log dilutions in duplicate in the presence of vehicle.

[2] = test system: HMEC-1 human dermal endothelial cells; assay: Mitochondrial stress test (Agilent Seahorse XFe96); assay type: cell-based
Procedure: A mitochondrial stress test was also conducted to determine the effects of the experimental compounds on cellular mitochondria. Assays were conducted using HMEC-1 human dermal endothelial cells optimized for use with the Agilent Seahorse XFe96 analyzer. HMEC-1 cells were obtained from ATCC and cultured in accordance with the supplier's guidelines: complete cell culture media consisted of MCD 131 supplemented with 10 ng/ml EGF 1 μg/ml hydrocortisone, 10 mM glutamine, 10% FBS, and 1% penicillin/streptomycin. To determine optimal cell seeding densities, cells were seeded in Agilent XF96 cell culture microplates at 80,000 cells/well at the highest concentration. […] Cell viability was assessed using trypan blue exclusion. […] (non-CO2) for 1 hour and imaged with a Cytation 5 imaging multimode plate reader (BioTek instruments) and analyzed using Prism 9.0 (GraphPad Software.) The stress test profile cycled through 18 minute exposures to oligomycin 1 μg/ml, FCCP 2 μM and antimycin A 10 μM/rotenone 1 μM. At the completion of the mitochondrial stress test, cells were imaged and Hoechst positive nuclei were quantified using the Seahorse Cell Analysis software. All data were analyzed using Wave Analysis software (version 2.6.1.53) and Prism 9.0 (GraphPad software). […]

[3] = test system: mitochondrial electron transport chain and ATP synthase (Complex I-V); assay: MitoCheck Complex I-V activity assays in isolated mitochondria; assay type: biochemical, bovine
Procedure: MitoCheck Complex I-V activity assays were conducted in an Agilent Seahorse XFe96 analyzer to determine the effects of compounds on the mitochondrial electron transport chain and ATP synthase in isolated mitochondria. Compounds were screened in a dose dependent manner using 10-point ½ log dilutions in quadruplicate along with a […] for each of the five complexes.
Complex I activity was determined using an assay that measures the rotenone-sensitive rate of NADH oxidation by complex I in isolated bovine heart mitochondria. To prevent oxidation of ubiquinol by complex III, KCN (1 mM) was present to inhibit the downstream electron transport chain. […]
Complex II activity was determined using an assay that measures the succinate dependent rate of DCPIP reduction in isolated bovine heart mitochondria. […]
Complex III activity was determined using an assay measures the rate of cytochrome c reduction by the passage of electrons from complex II to complex III via ubiquinone in isolated bovine heart mitochondria. […]
Complex IV activity was determined using an assay that measures the rate of cytochromec oxidation by complex IV in isolated bovine heart mitochondria. […]
Complex V activity was determined using an assay that measures the rate of […] resulting from a series of coupled reactions linked to the hydrolysis of ATP by complex V in isolated bovine heart mitochondria. […]

O=C(CO)NCCCN[C@@H]1CO[C@H]2[C@@H]1OC[C@@H]2O[N+](=O)[O-] [CR-0305, (3S,3aS,6R,6aR)-6-((3-(2-hydroxyacetamido)propyl)amino)hexahydrofuro[3,2-b]furan-3-yl nitrate]
No significant toxicity: Toxicity, effect of drug on ATP synthesis [1] | Toxicity, mitochondrial stress test [2] | Toxicity, MitoCheck Complex I-V activity [3]
